Values of other authors in patent US20260248829A1, “PHOSPHOLIPID COMPOSITIONS COMPRISING EPA AND/OR DHA FOR AMELIORATING NEURODEGENERATION AND AGE-RELATED NEURODEGENERATIVE DISORDERS” (Aker BioMarine Human Ingredients AS, priority 2022, published 2026).

Test system: dopaminergic neurons in the nigro-striatal circuit
Conditions: young mice

In the case of `CC1=C(/C=C/C(C)=C/C=C/C(C)=C/C=C/C=C(C)/C=C/C=C(C)/C=C/C2=C(C)C(=O)[C@@H](O)CC2(C)C)C(C)(C)C[C@H](O)C1=O` [astaxanthin], the “protection of dopaminergic neurons” value is listed as “protects”.
